{
  "source": "ChEMBL document CHEMBL3352227",
  "about": "“Synthesis, antimycobacterial and antibacterial evaluation of l-[(1R, 2S)-2-fluorocyclopropyl]fluoroquinolone derivatives containing an oxime functional moiety” (Eur J Med Chem, 2014)",
  "format_in_all_cases": "functional",
  "key": {"Klebsiella pneumoniae [1]": {"test_system": "Klebsiella pneumoniae", "assay": "Antibacterial activity against extended-spectrum beta-lactamase producin Klebsiella pneumoniae 12-4 after 18 to 24 hrs by standard twofold serial dilution method"}, "Pseudomonas aeruginosa [2]": {"test_system": "Pseudomonas aeruginosa", "assay": "Antibacterial activity against Pseudomonas aeruginosa 12-14 after 18 to 24 hrs by standard twofold serial dilution method"}, "Escherichia coli [3]": {"test_system": "Escherichia coli", "assay": "Antibacterial activity against extended-spectrum beta-lactamase producing Escherichia coli 12-15 after 18 to 24 hrs by standard twofold serial dilution method"}, "Streptococcus pneumoniae [4]": {"test_system": "Streptococcus pneumoniae", "assay": "Antibacterial activity against Streptococcus pneumoniae 12-18 after 18 to 24 hrs by standard twofold serial dilution method"}, "Escherichia coli [5]": {"test_system": "Escherichia coli", "assay": "Antibacterial activity against Escherichia coli 12-1 after 18 to 24 hrs by standard twofold serial dilution method"}, "Klebsiella pneumoniae [6]": {"test_system": "Klebsiella pneumoniae", "assay": "Antibacterial activity against Klebsiella pneumoniae 12-4 after 18 to 24 hrs by standard twofold serial dilution method"}, "Klebsiella pneumoniae [7]": {"test_system": "Klebsiella pneumoniae", "assay": "Antibacterial activity against extended-spectrum beta-lactamase producin Klebsiella pneumoniae 12-3 after 18 to 24 hrs by standard twofold serial dilution method"}, "Klebsiella pneumoniae [8]": {"test_system": "Klebsiella pneumoniae", "assay": "Antibacterial activity against extended-spectrum beta-lactamase producin Klebsiella pneumoniae 12-7 after 18 to 24 hrs by standard twofold serial dilution method"}, "Escherichia coli [9]": {"test_system": "Escherichia coli", "assay": "Antibacterial activity against extended-spectrum beta-lactamase producing Escherichia coli 12-14 after 18 to 24 hrs by standard twofold serial dilution method"}, "Klebsiella pneumoniae [10]": {"test_system": "Klebsiella pneumoniae", "assay": "Antibacterial activity against extended-spectrum beta-lactamase producin Klebsiella pneumoniae 12-14 after 18 to 24 hrs by standard twofold serial dilution method"}, "[11]": {"test_system": "Staphylococcus epidermidis", "assay": "Antibacterial activity against methicillin-resistant Staphylococcus epidermidis 12-6 after 18 to 24 hrs by standard twofold serial dilution method"}, "Pseudomonas aeruginosa [12]": {"test_system": "Pseudomonas aeruginosa", "assay": "Antibacterial activity against Pseudomonas aeruginosa 12-12 after 18 to 24 hrs by standard twofold serial dilution method"}, "[13]": {"test_system": "Staphylococcus epidermidis", "assay": "Antibacterial activity against methicillin-resistant Staphylococcus epidermidis 12-1 after 18 to 24 hrs by standard twofold serial dilution method"}, "Escherichia coli [14]": {"test_system": "Escherichia coli", "assay": "Antibacterial activity against Escherichia coli ATCC 25922 after 18 to 24 hrs by standard twofold serial dilution method"}, "Streptococcus pneumoniae [15]": {"test_system": "Streptococcus pneumoniae", "assay": "Antibacterial activity against Streptococcus pneumoniae ATCC 49619 after 18 to 24 hrs by standard twofold serial dilution method"}, "Staphylococcus aureus [16]": {"test_system": "Staphylococcus aureus", "assay": "Antibacterial activity against methicillin-sensitive Staphylococcus aureus 12-1 after 18 to 24 hrs by standard twofold serial dilution method"}, "Staphylococcus aureus [17]": {"test_system": "Staphylococcus aureus", "assay": "Antibacterial activity against methicillin-resistant Staphylococcus aureus 12-2 after 18 to 24 hrs by standard twofold serial dilution method"}, "[18]": {"test_system": "Mycobacterium tuberculosis", "assay": "Antimycobacterial activity against Mycobacterium tuberculosis H37Rv ATCC 27294 by MABA method"}, "Staphylococcus aureus [19]": {"test_system": "Staphylococcus aureus", "assay": "Antibacterial activity against methicillin-sensitive Staphylococcus aureus 12-2 after 18 to 24 hrs by standard twofold serial dilution method"}, "Staphylococcus aureus [20]": {"test_system": "Staphylococcus aureus", "assay": "Antibacterial activity against methicillin-resistant Staphylococcus aureus 12-4 after 18 to 24 hrs by standard twofold serial dilution method"}, "Staphylococcus aureus [21]": {"test_system": "Staphylococcus aureus", "assay": "Antibacterial activity against methicillin-sensitive Staphylococcus aureus 12-4 after 18 to 24 hrs by standard twofold serial dilution method"}, "[22]": {"test_system": "Staphylococcus epidermidis", "assay": "Antibacterial activity against methicillin-sensitive Staphylococcus epidermidis 12-3 after 18 to 24 hrs by standard twofold serial dilution method"}, "[23]": {"test_system": "Staphylococcus epidermidis", "assay": "Antibacterial activity against methicillin-sensitive Staphylococcus epidermidis 12-1 after 18 to 24 hrs by standard twofold serial dilution method"}, "Klebsiella pneumoniae [24]": {"test_system": "Klebsiella pneumoniae", "assay": "Antibacterial activity against Klebsiella pneumoniae 12-2 after 18 to 24 hrs by standard twofold serial dilution method"}, "Klebsiella pneumoniae [25]": {"test_system": "Klebsiella pneumoniae", "assay": "Antibacterial activity against Klebsiella pneumoniae 12-1 after 18 to 24 hrs by standard twofold serial dilution method"}, "Escherichia coli [26]": {"test_system": "Escherichia coli", "assay": "Antibacterial activity against extended-spectrum beta-lactamase producing Escherichia coli 12-2 after 18 to 24 hrs by standard twofold serial dilution method"}, "Staphylococcus aureus [27]": {"test_system": "Staphylococcus aureus", "assay": "Antibacterial activity against Staphylococcus aureus ATCC 25923 after 18 to 24 hrs by standard twofold serial dilution method"}, "[28]": {"test_system": "Staphylococcus epidermidis", "assay": "Antibacterial activity against methicillin-sensitive Staphylococcus epidermidis 12-6 after 18 to 24 hrs by standard twofold serial dilution method"}, "Staphylococcus aureus [29]": {"test_system": "Staphylococcus aureus", "assay": "Antibacterial activity against methicillin-sensitive Staphylococcus aureus 12-5 after 18 to 24 hrs by standard twofold serial dilution method"}, "Escherichia coli [30]": {"test_system": "Escherichia coli", "assay": "Antibacterial activity against extended-spectrum beta-lactamase producing Escherichia coli 12-3 after 18 to 24 hrs by standard twofold serial dilution method"}, "[31]": {"test_system": "Staphylococcus epidermidis", "assay": "Antibacterial activity against methicillin-sensitive Staphylococcus epidermidis 12-8 after 18 to 24 hrs by standard twofold serial dilution method"}, "Staphylococcus aureus [32]": {"test_system": "Staphylococcus aureus", "assay": "Antibacterial activity against methicillin-resistant Staphylococcus aureus 12-5 after 18 to 24 hrs by standard twofold serial dilution method"}},
  "data": [
    {"smiles": "CO/N=C1/CCN(c2cc3c(cc2F)c(=O)c(C(=O)O)cn3[C@@H]2C[C@@H]2F)CC1N", "note": "(some centres undefined)", "values": [
      {"measurement": "MIC", "setting": "Klebsiella pneumoniae [1]", "result": 16, "unit": "µg/mL"},
      {"measurement": "MIC", "setting": "Pseudomonas aeruginosa [2]", "result": 32, "unit": "µg/mL"},
      {"measurement": "MIC", "setting": "Escherichia coli [3]", "result": "> 128", "unit": "µg/mL"},
      {"measurement": "MIC", "setting": "Streptococcus pneumoniae [4]", "result": 2, "unit": "µg/mL"},
      {"measurement": "MIC", "setting": "Escherichia coli [5]", "result": 2, "unit": "µg/mL"},
      {"measurement": "MIC", "setting": "Klebsiella pneumoniae [6]", "result": 1, "unit": "µg/mL"},
      {"measurement": "MIC", "setting": "Klebsiella pneumoniae [7]", "result": "> 128", "unit": "µg/mL"},
      {"measurement": "MIC", "setting": "Klebsiella pneumoniae [8]", "result": 4, "unit": "µg/mL"},
      {"measurement": "MIC", "setting": "Escherichia coli [9]", "result": 128, "unit": "µg/mL"},
      {"measurement": "MIC", "setting": "Klebsiella pneumoniae [10]", "result": "> 128", "unit": "µg/mL"},
      {"measurement": "MIC", "setting": "[11]", "result": 2, "unit": "µg/mL"},
      {"measurement": "MIC", "setting": "Pseudomonas aeruginosa [12]", "result": 4, "unit": "µg/mL"},
      {"measurement": "MIC", "setting": "[13]", "result": 8, "unit": "µg/mL"},
      {"measurement": "MIC", "setting": "Escherichia coli [14]", "result": 0.25, "unit": "µg/mL"},
      {"measurement": "MIC", "setting": "Streptococcus pneumoniae [15]", "result": 1, "unit": "µg/mL"},
      {"measurement": "MIC", "setting": "Staphylococcus aureus [16]", "result": 0.5, "unit": "µg/mL"},
      {"measurement": "MIC", "setting": "Staphylococcus aureus [17]", "result": 64, "unit": "µg/mL"},
      {"measurement": "MIC", "setting": "[18]", "result": 1, "unit": "µg/mL"},
      {"measurement": "MIC", "setting": "Staphylococcus aureus [19]", "result": 0.5, "unit": "µg/mL"},
      {"measurement": "MIC", "setting": "Staphylococcus aureus [20]", "result": 128, "unit": "µg/mL"},
      {"measurement": "MIC", "setting": "Staphylococcus aureus [21]", "result": 0.5, "unit": "µg/mL"},
      {"measurement": "MIC", "setting": "[22]", "result": 1, "unit": "µg/mL"},
      {"measurement": "MIC", "setting": "[23]", "result": 0.5, "unit": "µg/mL"},
      {"measurement": "MIC", "setting": "Klebsiella pneumoniae [24]", "result": 1, "unit": "µg/mL"},
      {"measurement": "MIC", "setting": "Klebsiella pneumoniae [25]", "result": 2, "unit": "µg/mL"},
      {"measurement": "MIC", "setting": "Escherichia coli [26]", "result": "> 128", "unit": "µg/mL"},
      {"measurement": "MIC", "setting": "Staphylococcus aureus [27]", "result": 0.5, "unit": "µg/mL"},
      {"measurement": "MIC", "setting": "[28]", "result": 0.5, "unit": "µg/mL"},
      {"measurement": "MIC", "setting": "Staphylococcus aureus [29]", "result": 0.5, "unit": "µg/mL"},
      {"measurement": "MIC", "setting": "Escherichia coli [30]", "result": 16, "unit": "µg/mL"},
      {"measurement": "MIC", "setting": "[31]", "result": 2, "unit": "µg/mL"},
      {"measurement": "MIC", "setting": "Staphylococcus aureus [32]", "result": 64, "unit": "µg/mL"}
    ]},
    {"smiles": "CO/N=C1/CN(c2cc3c(cc2F)c(=O)c(C(=O)O)cn3[C@@H]2C[C@@H]2F)CC1CN", "note": "(some centres undefined)", "values": [
      {"measurement": "MIC", "setting": "Klebsiella pneumoniae [1]", "result": 16, "unit": "µg/mL"},
      {"measurement": "MIC", "setting": "Pseudomonas aeruginosa [2]", "result": 2, "unit": "µg/mL"},
      {"measurement": "MIC", "setting": "Escherichia coli [3]", "result": 128, "unit": "µg/mL"},
      {"measurement": "MIC", "setting": "Streptococcus pneumoniae [4]", "result": 0.25, "unit": "µg/mL"},
      {"measurement": "MIC", "setting": "Escherichia coli [5]", "result": 0.25, "unit": "µg/mL"},
      {"measurement": "MIC", "setting": "Klebsiella pneumoniae [6]", "result": 0.25, "unit": "µg/mL"},
      {"measurement": "MIC", "setting": "Klebsiella pneumoniae [7]", "result": 32, "unit": "µg/mL"},
      {"measurement": "MIC", "setting": "Klebsiella pneumoniae [8]", "result": 1, "unit": "µg/mL"},
      {"measurement": "MIC", "setting": "Escherichia coli [9]", "result": 32, "unit": "µg/mL"},
      {"measurement": "MIC", "setting": "Klebsiella pneumoniae [10]", "result": 64, "unit": "µg/mL"},
      {"measurement": "MIC", "setting": "[11]", "result": 0.125, "unit": "µg/mL"},
      {"measurement": "MIC", "setting": "Pseudomonas aeruginosa [12]", "result": 2, "unit": "µg/mL"},
      {"measurement": "MIC", "setting": "[13]", "result": 2, "unit": "µg/mL"},
      {"measurement": "MIC", "setting": "Escherichia coli [14]", "result": 0.03, "unit": "µg/mL"},
      {"measurement": "MIC", "setting": "Streptococcus pneumoniae [15]", "result": 0.03, "unit": "µg/mL"},
      {"measurement": "MIC", "setting": "Staphylococcus aureus [16]", "result": 0.125, "unit": "µg/mL"},
      {"measurement": "MIC", "setting": "Staphylococcus aureus [17]", "result": 16, "unit": "µg/mL"},
      {"measurement": "MIC", "setting": "[18]", "result": 1, "unit": "µg/mL"},
      {"measurement": "MIC", "setting": "Staphylococcus aureus [19]", "result": 0.125, "unit": "µg/mL"},
      {"measurement": "MIC", "setting": "Staphylococcus aureus [20]", "result": 4, "unit": "µg/mL"},
      {"measurement": "MIC", "setting": "Staphylococcus aureus [21]", "result": 0.06, "unit": "µg/mL"},
      {"measurement": "MIC", "setting": "[22]", "result": 0.06, "unit": "µg/mL"},
      {"measurement": "MIC", "setting": "[23]", "result": 0.06, "unit": "µg/mL"},
      {"measurement": "MIC", "setting": "Klebsiella pneumoniae [24]", "result": 0.25, "unit": "µg/mL"},
      {"measurement": "MIC", "setting": "Klebsiella pneumoniae [25]", "result": 0.25, "unit": "µg/mL"},
      {"measurement": "MIC", "setting": "Escherichia coli [26]", "result": 128, "unit": "µg/mL"},
      {"measurement": "MIC", "setting": "Staphylococcus aureus [27]", "result": "< 0.008", "unit": "µg/mL"},
      {"measurement": "MIC", "setting": "[28]", "result": 0.125, "unit": "µg/mL"},
      {"measurement": "MIC", "setting": "Staphylococcus aureus [29]", "result": 0.125, "unit": "µg/mL"},
      {"measurement": "MIC", "setting": "Escherichia coli [30]", "result": 32, "unit": "µg/mL"},
      {"measurement": "MIC", "setting": "[31]", "result": 0.25, "unit": "µg/mL"},
      {"measurement": "MIC", "setting": "Staphylococcus aureus [32]", "result": 8, "unit": "µg/mL"}
    ]}
  ]
}
